In article PMC8752476 (Journal of molecular biology, 2021):

Legend:
[1] = tested on: Abl^FK (SH3-SH2 module and kinase domain); assay: NMR; parameters: species or system human; conditions: GNF5 displaces imatinib from the myristoyl pocket
Abl^Y272H/A363V = assay: Kinase assay, phosphorylation of CrkII, Abl Y272H/A363V; format: biochemical, human

Row | SMILES | effect on equilibrium, GNF5 added to imatinib-bound Abl^FK [1] | kinase activity of Abl^Y272H/A363V in the presence of both imatinib and GNF5 (Abl^Y272H/A363V; 2 mM ATP) | kinase activity of Abl^Y272H/A363V in the presence of imatinib (Abl^Y272H/A363V; 2 mM ATP, compared with Abl^Y272H/L359A) | effect on catalytic activity of Abl^Y272H/A363V at high ATP (Abl^Y272H/A363V; 20 mM ATP)
1 | O=C(NCCO)c1cccc(-c2cc(Nc3ccc(OC(F)(F)F)cc3)ncn2)c1 [GNF5] | shifts the population almost fully towards the inhibited state | strongly suppressed | – | –
2 | Cc1ccc(NC(=O)c2ccc(CN3CCN(C)CC3)cc2)cc1Nc1nccc(-c2cccnc2)n1 [imatinib] | – | – | significantly higher than the activity of Abl^Y272H/L359A | significantly increases the catalytic activity
